# Experimental data from patent US6846845B2, “Heat shock protein inducer” (Eisai Co., Ltd., priority 2002, dated 2005).
# Assays:
# Assay type in all cases: in vivo, rat
# PKC (α, β, γ and ε) = assay: Translocation of PKC isoforms α, β, γ and ε in particulate and cytosolic heart fractions (Western immunoblotting); settings: 24 h after GGA 200 mg/kg oral or vehicle; chelerythrine 5 mg/kg i.v. pretreatment, FIG. 10
# HSP70 = assay: Effect of chelerythrine pretreatment on GGA-induced HSP70 expression in the heart (Western immunoblotting), Example 2; settings: 24 h after GGA 200 mg/kg oral or vehicle; chelerythrine 5 mg/kg i.v. pretreatment, FIG. 8
# Protocol: (§1) Male Sprague-Dawley rats (220-250 g) were used. GGA, as an emulsion with 5% gum arabic and 0.008% tocopherol, was given orally at a dose of 200 mg/kg. Rats were classified into 4 groups. FIG. 7 is a diagrammatic representation of experimental protocol. […] Twenty-four hours after oral administration of GGA or vehicle, rats were anesthetized (sodium pentobarbital, 50 mg/kg IP) and heparinized (500 IU/kg IP). Hearts were excised, immediately frozen in liquid nitrogen, and stored at −70° C. until use for Western blot analysis (n=4 for each group). […]
# (§2) To analyze the expression of HSP70, the frozen heart samples were homogenized with SDS sample buffer (pH 6.8, 20% glycerol, 6% SDS, 0.12M Tris), centrifuged and boiled (Maloyan A, Palmon A, Horowitz M. Heat acclimation increases the basal HSP70 level and alters its production dynamics during heat stress. Am J Physiol. 1999; 276:R1506-R1515.). […] The total protein concentration of heart was quantified by the Bradford method (Bradford MM. A rapid and sensitive method for quantitation of microgram quantities of protein utilizing the principle of protein-dye binding. Anal. Biochem. 1976;72:248-254). […] The proteins were detected by ECL with exposure to Hyperfilm (Amersham Pharmacia). The amount of protein on the immunoblots was quantified using National Institutes of Health image software. […]
# isolated perfused heart = assay: Isolated perfused heart experiments (Langendorff, 20 min no-flow global ischemia, 30 min reperfusion), Example 2
# Protocol: Male Sprague-Dawley rats (220-250 g) were used. GGA, as an emulsion with 5% gum arabic and 0.008% tocopherol, was given orally at a dose of 200 mg/kg. Rats were classified into 4 groups. FIG. 7 is a diagrammatic representation of experimental protocol. […] Twenty-four hours after oral administration of GGA or vehicle, rats were anesthetized (sodium pentobarbital, 50 mg/kg IP) and heparinized (500 IU/kg IP). Hearts were excised, immediately frozen in liquid nitrogen, and stored at −70° C. until use for Western blot analysis (n=4 for each group). To examine the cardiac function during ischemia and reperfusion, hearts of each group were prepared for isolated perfused experiments using Langendorff apparatus (n=7-9 for each group, FIG. 7).
# Twenty-four hours after administration-of 200 mg/kg of GGA or vehicle, rats of 4 groups were heparinized (500 IU/kg, IP) and anesthetized with sodium pentobarbital (50 mg/kg, IP). Each heart was isolated and perfused retrogradely using the Langendorff method with Krebs-Henseleit buffer (pH 7.4, [in mM] 118 NaCl, 4.7 KCl, 2.5 CaCl2, 1.2 MgSO4, 1.2 KH2PO4, 25.0 Na2HCO3, 11.0 glucose) equilibrated with 95% O2-5% CO2 gas mixture at 36.5° C. at a constant pressure of 75 mm Hg. A water-filled latex balloon was inserted through the mitral orifice into the left ventricle (LV) and the LV end-diastolic pressure (LVEDP) was adjusted to 0-5 mm Hg. During the initial 10 min of constant pressure perfusion, the perfusion flow rate was determined for each heart, which was then perfused at a determined perfusion rate using a microtube pump while the heart was covered with water-jacketed glassware and the relative humidity maintained at 90% or more. Normothermic no-flow global ischemia was initiated for 20 min, followed by reperfusion for 30 min. The coronary effluent during the 30 min of reperfusion period was collected for measurement of creatine kinase content (released CK).
# LV pressure was monitored using a pressure transducer to obtain the peak positive and negative first derivatives of LV pressure (dP/dtmax and dP/dtmin). […] Coronary perfusion pressure (CPP) was defined as the hydraulic pressure measured at the level of aortic cannulation. LV pressure, CPP and electrocardiogram were continuously recorded on a polygraph recorder (WS-681G, Nihon Kohden) and stored on a PCM data recorder (RD-111T, TEAC) for later analysis.
# Data are expressed as mean ±SEM. Serial changes in LVDP, LVEDP, CPP, and dP/dt were analyzed by two-way analysis of variance (ANOVA) followed by the Bonferroni/Dunn test, unless otherwise specified. Comparisons among groups with respect to the hemodynamic parameters at baseline and the ratio of released CK to ventricular weight were analyzed by one-way ANOVA followed by the Bonferroni/Dunn test. […]
# PKCδ = assay: Translocation of PKCδ in particulate and cytosolic heart fractions (Western immunoblotting); settings: 24 h after GGA 200 mg/kg oral or vehicle; chelerythrine 5 mg/kg i.v. pretreatment, FIG. 10
# [1] = test system: heat shock factor 1 (HSF1); assay: HSF1 phosphorylation and translocation in cytosolic and nuclear heart fractions (Western immunoblotting); settings: 24 h after GGA 200 mg/kg oral or vehicle; chelerythrine 5 mg/kg i.v. pretreatment, FIG. 9
# Protocol: as §1, §2
structure (smiles),measurement,setting,value
"COc1ccc2c(c[n+](C)c3c4cc5c(cc4ccc23)OCO5)c1OC [chelerythrine, reference compound]","PKC isoforms α, β, γ and ε in cytosolic and particulate fractions","PKC (α, β, γ and ε)",not influenced
same,HSP70 expression in the heart (relative density to control group),HSP70,did not influence
same,released creatine kinase (CK) relative to ventricular weight,"isolated perfused heart; 30-min reperfusion period after 20 min ischemia, FIG. 12",similar
same,"recovery of LVDP, LVEDP and dP/dt on reperfusion versus CNT group","isolated perfused heart; 20 min no-flow global ischemia, 30 min reperfusion, FIG. 11",similar
same,PKCδ in the particulate fraction / particulate/cytosol ratio versus CNT group,PKCδ,did not influence
same,amount of phosphorylated form of HSF1 in the nuclear fraction,[1],did not significantly influence
